Experimental data reported in ChEMBL document CHEMBL3994588, “Importance of 5/6-aryl substitution on the pharmacological profile of 4'-((2-propyl-1H-benzo[d]imidazol-1-yl)methyl)-[1,1'-biphenyl]-2-carboxylic acid derived PPARγ agonists” (Eur J Med Chem, 2017).

Tests used:
[1] = biological target: T1, Peroxisome proliferator-activated receptor gamma (Homo sapiens) (UniProt P37231); assay: (§1) Transactivation of Gal4 fused human PPARgamma LBD expressed in African green monkey COS7 cells after 42 hrs by dual luciferase reporter gene assay; format: cell-based
T1 sequence (whole entry): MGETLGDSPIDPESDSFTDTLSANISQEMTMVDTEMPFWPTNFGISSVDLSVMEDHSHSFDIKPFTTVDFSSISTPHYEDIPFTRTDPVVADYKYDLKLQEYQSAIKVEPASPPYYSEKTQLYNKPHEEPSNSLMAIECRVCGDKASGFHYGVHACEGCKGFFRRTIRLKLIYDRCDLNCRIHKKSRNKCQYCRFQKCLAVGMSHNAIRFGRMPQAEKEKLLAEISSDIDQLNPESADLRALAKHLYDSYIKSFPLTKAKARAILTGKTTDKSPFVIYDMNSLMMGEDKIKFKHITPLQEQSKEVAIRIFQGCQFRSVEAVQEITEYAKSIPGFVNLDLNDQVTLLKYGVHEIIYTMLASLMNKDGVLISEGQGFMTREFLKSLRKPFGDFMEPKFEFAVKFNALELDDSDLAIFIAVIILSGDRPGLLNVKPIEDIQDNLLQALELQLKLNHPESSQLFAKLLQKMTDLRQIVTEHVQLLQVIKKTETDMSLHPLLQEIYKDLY

[2] = biological target: T2, Peroxisome proliferator-activated receptor gamma (Homo sapiens, UniProt P37231); assay: as §1; format: cell-based
T2 sequence (P37231 whole entry): T1 sequence (whole entry)

| Structure (SMILES) | Activity [1] | EC50 ([2]; read-out: EC50) [nM] | EC50 [2] |
| --- | --- | --- | --- |
| CCCc1nc2cc(-c3cccc(OC)c3)ccc2n1Cc1ccc(-c2ccccc2C(=O)O)cc1 | Dose-dependent effect | 290 | – |
| CCCc1nc2ccc(-c3cccc(OC)c3)cc2n1Cc1ccc(-c2ccccc2C(=O)O)cc1 | Dose-dependent effect | 1350 | – |
| CCCc1nc2ccc(-c3ccc(Cl)cc3)cc2n1Cc1ccc(-c2ccccc2C(=O)O)cc1 | Dose-dependent effect | 1150 | – |
| CCCc1nc2cc(-c3ccccc3Cl)ccc2n1Cc1ccc(-c2ccccc2C(=O)O)cc1 | Dose-dependent effect | 930 | – |
| CCCc1nc2cc(-c3cccc(Cl)c3)ccc2n1Cc1ccc(-c2ccccc2C(=O)O)cc1 | – | – | Not Active |
| CCCc1nc2cc(-c3cccc(O)c3)ccc2n1Cc1ccc(-c2ccccc2C(=O)O)cc1 | Dose-dependent effect | 1250 | – |
| CCCc1nc2ccc(-c3ccc(OC)cc3)cc2n1Cc1ccc(-c2ccccc2C(=O)O)cc1 | Dose-dependent effect | 1010 | – |
| CCCc1nc2cc(-c3ccc(O)cc3)ccc2n1Cc1ccc(-c2ccccc2C(=O)O)cc1 | Dose-dependent effect | 1010 | – |
| CCCc1nc2ccc(-c3ccc(O)cc3)cc2n1Cc1ccc(-c2ccccc2C(=O)O)cc1 | Dose-dependent effect | 2980 | – |
| CCCc1nc2ccc(-c3cccc(O)c3)cc2n1Cc1ccc(-c2ccccc2C(=O)O)cc1 | Dose-dependent effect | 4090 | – |
| CCCc1nc2ccc(-c3cccc(Cl)c3)cc2n1Cc1ccc(-c2ccccc2C(=O)O)cc1 | Dose-dependent effect | 770 | – |
| CCCc1nc2ccc(-c3ccccc3Cl)cc2n1Cc1ccc(-c2ccccc2C(=O)O)cc1 | Dose-dependent effect | 1390 | – |
| CCCc1nc2cc(-c3ccc(Cl)cc3)ccc2n1Cc1ccc(-c2ccccc2C(=O)O)cc1 | Dose-dependent effect | 190 | – |
| CCCc1nc2ccccc2n1Cc1ccc(-c2ccccc2C(=O)O)cc1 | Dose-dependent effect | 6440 | – |
| CCCc1nc2c(C)cc(-c3nc4ccccc4n3C)cc2n1Cc1ccc(-c2ccccc2C(=O)O)cc1 | – | 4970 | – |
| CCCc1nc2cc(-c3ccc(OC)cc3)ccc2n1Cc1ccc(-c2ccccc2C(=O)O)cc1 | Dose-dependent effect | 410 | – |
